Tests used:
[1] = tested on: ANKA strain of P. berghei; assay: single dose STI in vivo screen in infected mice; design: species or system Plasmodium berghei; conditions: for Activity (%) 3 mg/kg SSV po: single 3 mg/kg po in SSV; for Activity (%) 10 mg/kg SSV po / Survival (days) 10 mg/kg SSV po: single 10 mg/kg po in SSV
Summary of the method: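 Groups of 3-5 Moro SPF or NMRI mice infected with the ANKA strain of P. berghei received a single dose of trioxolane on day one post-infection. The compound was given in 3% ethanol and 7% Tween 80 or in SSV (0.5% w/v CMC, 0.5% v/v benzyl alcohol, 0.4% v/v Tween 80, 0.9% w/v sodium chloride in water). Antimalarial activity was scored as percent reduction in parasitemia on day three and as survival time versus untreated controls. Survival to day 30 counted as cure.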

[2] = tested on: ANKA strain of Plasmodium berghei; assay: single dose ED50/ED90/ED99 determinations in infected mice; type: in vivo
Summary of the method: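 Mice (Moro SPF or NMRI, n=3 per group) infected with P. berghei ANKA received a single dose on day 1 post-infection, vehicle 0.5% CMC/0.5% benzyl alcohol/0.4% Tween 80/0.9% NaCl in water. Read-out is percent reduction in parasitemia on day 3; ED values by nonlinear fitting.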

P. berghei ANKA strain [3] = assay: treatment: 3x3 mg/kg and 3x1 mg/kg po divided doses in infected mice; type: in vivo, Plasmodium berghei; conditions: for Activity (%) p.o. SSV: percent reduction of parasitemia day 4
Summary of the method: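 NMRI mice infected i.v. with 2×10^7 P. berghei ANKA-parasitized erythrocytes on day 0, then dosed orally in SSV vehicle at 3×3 or 3×1 mg/kg on days 1–3. Day-4 Giemsa smears gave percent parasitemia reduction versus untreated controls; survival to day 30 counted as cure.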

[4] = tested on: parasitemia (malaria infection); assay: onset of action and recrudescence experiments; type: in vivo; conditions: single 100 mg/kg po (SSV) on day +3 post-infection; recrudescence = >5% parasitemia; followed up to 60 days; (n/5) = animals
Description: The onset of drug action was determined after a single fixed dose of 100 mg/kg (SSV vehicle) po to groups of five animals on day +3 post-infection (day 0).

P. berghei ANKA strain [5] = assay: prophylactic activity, single 100 mg/kg po dose before infection; type: in vivo, Plasmodium berghei; conditions: reduction of parasitemia day 3 post-infection
P. berghei ANKA strain [6] = assay: treatment: 3x10 mg/kg p.o. divided dose vs 1x30 mg/kg po single dose in infected mice; type: in vivo, Plasmodium berghei; conditions: for Activity (%) p.o. SSV: percent reduction of parasitemia day 4
Description: Moro NMRI male mice (Fü Albino specific pathogen free) weighing 18±2 g were infected intravenously (i.v.) with 2×10^7 P. berghei ANKA strain-infected erythrocytes from donor mice on day 0 of the experiment. From donor mice with circa 30% parasitemia, heparinized blood was taken and diluted in physiological saline to 10^8 parasitized erythrocytes per ml. An aliquot (0.2 ml) of this suspension was injected i.v. into experimental and control groups of mice. […] Throughout the experiments, mice were kept in groups of three or five animals in Makrolon type II cages in an air-conditioned animal room at 22 to 23° C.
They were administered per os (p.o.) in a total volume of 0.01 ml per gram of mouse. The activity of the compound was determined by a variety of methods outlined in subsequent sections. Survival time was also recorded, and survival to day 30 post-infection was considered to be a cure.
The first experiment conducted consisted of administration of a divided 3×10 mg/kg p.o. dose administered on days 1, 2, and 3 post-infection vs. a single 1×30 mg/kg po dose administered on day 1 post-infection. On day 4 post-infection, blood smears of all animals were prepared and stained with Giemsa. […] Compounds were administered orally in the SSV vehicle.

[7] = tested on: Schistosoma mansoni adult schistosomes (49-day-old); assay: effect on adult schistosomes (49-day-old) in mice; type: in vivo; conditions: for % reduction of adult worms growth at day 49 after per os application of 400 mg/kg, TWR (%) / adult worms at day 49, per os 400 mg/kg, DEAD WORM (%): single 400 mg/kg per os; for % reduction of adult worms growth at day 49 after per os application of 600 mg/kg, TWR (%) / adult worms at day 49, per os 600 mg/kg, DEAD WORM (%): single 600 mg/kg per os
Description: Mice were infected with 100 Schistosoma mansoni cercariae […]. Each group was treated per os with OZ compounds at single doses of 200, 400, and 600 mg/kg. […] All groups were killed 4 weeks after treatment and the liver and intestine were removed and separated. The liver and intestine were compressed and alive male and female worms could be seen and counted.

Schistosoma japonicum = assay: effect in mice infected with Schistosoma japonicum; type: in vivo; conditions: for MFWB/x ± SD (mean female worm burden): control 11.6 ± 2.4; for MTWB/x ± SD (mean total worm burden): control 26.6 ± 4.2
[8] = tested on: P. falciparum K1 strain (Thailand resistant to chloroquine); assay: semiautomated microdilution assay, [3H]-hypoxanthine incorporation, K1 strain; type: cell-based, Plasmodium falciparum; conditions: K1 strain, 72 h incubation
Summary of the method: (§1)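 Logit regression analysis was used to estimate IC50 values. Parasites were intraerythrocytic forms from asynchronous stock cultures, and compounds were tested by semiautomated microdilution.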

[9] = tested on: P. falciparum NF54 strain (sensitive to standard antimalarials); assay: semiautomated microdilution assay, [3H]-hypoxanthine incorporation, NF54 strain; type: cell-based, Plasmodium falciparum; conditions: NF54 strain, 72 h incubation
Summary of the method: as §1

[10] = tested on: Schistosoma mansoni adult schistosomes (49-day-old); assay: effect on adult schistosomes (49-day-old) in mice; type: in vivo; conditions: 1 × 600 mg/kg sc.
[11] = tested on: Schistosoma mansoni 21-day-old schistosomules; assay: effect on 21-day-old schistosomules in mice; type: in vivo; conditions: single 200 mg/kg per os, female mice
Description: All groups were killed 4 weeks after treatment and the liver and intestine were removed and separated. The liver and intestine were compressed and alive male and female worms could be seen and counted. The effect of the compounds was evaluated by mean total and female worm burden.

dosing in dogs = type: in vivo; conditions: dog
Text: (§2) Artesunate is listed as a reference compound.

dosing in rats = type: in vivo; conditions: rat
Text: as §2

[12] = percent reduction in parasitemia day 3 post-infection
[13] = single dose po in SSV, mice, percent reduction in parasitemia on day three post-infection
[14] = 3 × 1 mg/kg days 1, 2, 3 post-infection
[15] = 3 × 3 mg/kg days 1, 2, 3 post-infection
[16] = 3 × 10 mg/kg days 1, 2, 3 post-infection
[17] = age of worm 7 days, 200 mg/kg x 1
[18] = age of worm 35 days, 200 mg/kg x 1
[19] = age of worm 35 days, 400 mg/kg x 1

## C[C@H]1[C@H](OC(=O)CCC(=O)O)O[C@@H]2O[C@@]3(C)CC[C@H]4[C@H](C)CC[C@@H]1[C@@]24OO3 [AS, artesunate, reference compound]
[1]; [12]
  Activity (%) 3 mg/kg SSV po: 66%
  Activity (%) 10 mg/kg SSV po: 87%
[1]
  Survival (days) 10 mg/kg SSV po: 7.0 days
[2]; Plasmodium berghei, po
  ED50: 4.7 mg/kg
[2]; [13]
  ED90: 19 mg/kg
  ED99: 60 mg/kg
P. berghei ANKA strain [3]; [14]
  Survival (days) p.o. SSV: 6.8 days
  Activity (%) p.o. SSV: 39%
P. berghei ANKA strain [3]; [15]
  Survival (days) p.o. SSV: 9.4 days
  Activity (%) p.o. SSV: 78%
[4]
  Time of Recrudescence: 8.6 days
P. berghei ANKA strain [5]; single 100 mg/kg po 24 h before infection
  Prophylactic Activity (%): 6.28%
P. berghei ANKA strain [5]; single 100 mg/kg po at 0 h
  Prophylactic Activity (%): 92.44%
P. berghei ANKA strain [6]; 1 × 30 mg/kg single dose day 1 post-infection
  Activity (%) p.o. SSV: 83.83%
P. berghei ANKA strain [6]; [16]
  Survival (days) p.o. SSV: 11 days
  Activity (%) p.o. SSV: 98.62%
P. berghei ANKA strain [6]; 3 × 10 mg/kg, survival to day 30 post-infection = cure, cured/treated mice
  Cures: 0/5

## Cc1ccc(S(=O)(=O)O)cc1.NC[C@H]1CC[C@]2(CC1)OOC1(O2)C2CC3CC(C2)CC1C3 (some centres unmarked) [OZ207]
[7]; 600 mg/kg per os, infected mice
  Tox (mice): Tox: ++2/5
[7]; single 200 mg/kg per os
  % reduction of adult worms growth at day 49 after per os application of 200 mg/kg, TWR (%): 32%
  adult worms at day 49, per os 200 mg/kg, DEAD WORM (%): 17%
[7]
  % reduction of adult worms growth at day 49 after per os application of 400 mg/kg, TWR (%): 35%
  adult worms at day 49, per os 400 mg/kg, DEAD WORM (%): 21%
  % reduction of adult worms growth at day 49 after per os application of 600 mg/kg, TWR (%): 11%
  adult worms at day 49, per os 600 mg/kg, DEAD WORM (%): 24%
[1]; percent reduction in parasitemia day 3 post-infection, single 10 mg/kg po in 3% ethanol and 7% Tween 80, mice
  Activity (%) po: 99.96%
[1]; percent reduction in parasitemia day 3 post-infection, single 10 mg/kg sc in 3% ethanol and 7% Tween 80, mice
  Activity (%) sc: 99.98%
[1]; percent reduction in parasitemia day 3 post-infection, single po dose in standard suspending vehicle (SSV), mice
  Activity (%) SSVpo: 99.98%
[1]; single 10 mg/kg po in 3% ethanol and 7% Tween 80, untreated control 5.6 ± 0.3
  Survival (days) po: 9.3 days
[1]; single 10 mg/kg sc in 3% ethanol and 7% Tween 80, untreated control 5.6 ± 0.3
  Survival (days) sc: 11.3 days
[1]; single po dose in SSV, untreated control 5.6 ± 0.3
  Survival (days) SSVpo: 12.0 days
[2]; [13]
  ED50: 0.37 mg/kg
  ED90: 1.2 mg/kg
  ED99: 3.0 mg/kg
Schistosoma japonicum; [17]
  Mice without ♀ worm: 0/8
  MFWB/x ± SD (mean female worm burden): 2.1 ± 1.0
  MTWB/x ± SD (mean total worm burden): 5.4 ± 2.4
Schistosoma japonicum; [18]
  FWRR/% (female worm reduction rate): 95%
  Mice without ♀ worm: 4/7
  WRR/% (worm reduction rate): 66%
  MFWB/x ± SD (mean female worm burden): 0.6 ± 0.7
  MTWB/x ± SD (mean total worm burden): 9.1 ± 3.9
Schistosoma japonicum; [19]
  FWRR/% (female worm reduction rate): 94%
  Mice without ♀ worm: 4/6
  MFWB/x ± SD (mean female worm burden): 0.7 ± 1.2
  MTWB/x ± SD (mean total worm burden): 4.3 ± 1.2
[4]
  Time of Recrudescence (days): no recrudescence
[8]
  IC50 (ng/ml) K1: 0.33 ng/mL
[9]
  IC50 (ng/ml) NF54: 0.57 ng/mL

## CC(C)(N)CNC(=O)C[C@H]1CC[C@]2(CC1)OO[C@]1(O2)C2CC3CC(C2)CC1C3 [OZ277]
[7]
  % reduction of adult worms growth at day 49 after per os application of 400 mg/kg, TWR (%): 0/0%
  adult worms at day 49, per os 400 mg/kg, DEAD WORM (%): 0/0%
  % reduction of adult worms growth at day 49 after per os application of 600 mg/kg, TWR (%): 17%
  adult worms at day 49, per os 600 mg/kg, DEAD WORM (%): 14%
[1]; [12]
  Activity (%) 3 mg/kg SSV po: 99.28%
  Activity (%) 10 mg/kg SSV po: 99.98%
[1]
  Survival (days) 10 mg/kg SSV po: 9.3 days
[10]
  % reduction of adult worms growth, 1 × 600 sc., TWR (%): 39%
  adult worms, 1 × 600 sc., DEAD WORM (%): 17%
[2]; [13]
  ED50: 0.78 mg/kg
  ED90: 2.0 mg/kg
  ED99: 4.4 mg/kg
[11]
  % reduction of schistosomule growth at day 21 after per os application of 200 mg/kg, FWR (%): 92%
  % reduction of schistosomule growth at day 21 after per os application of 200 mg/kg, TWR (%): 91%
[4]
  Time of Recrudescence: 13.0 days
Dosing in dogs; IV 10 mg/kg
  IV t1/2 (10 mg/kg): 1.58 h
Dosing in dogs; oral 10 mg/kg
  Oral t1/2 (10 mg/kg): 2.468 h
Dosing in dogs; oral 10 mg/kg, OZ 279, OZ 256, OZ 209 values flagged (V)
  Oral Bioavailability 10 mg/kg: 87.9%
Dosing in dogs; oral 25 mg/kg, OZ 279, OZ 256, OZ 209 values flagged (V)
  Oral Bioavailability 25 mg/kg: 96.1%
Dosing in rats; IV 10 mg/kg
  IV t1/2 (10 mg/kg): 1.29 h
Dosing in rats; oral 10 mg/kg
  Oral Bioavailability 10 mg/kg: 36.9%
Dosing in rats; oral 25 mg/kg
  Oral Bioavailability 25 mg/kg: 44.1%
  Oral t1/2 (25 mg/kg): 1.51 h

Reference: US6906205B2, “Spiro and dispiro 1,2,4-trioxolane antimalarials” (Medicines for Malaria Venture MMV, priority 2002, dated 2005)
